Results from US9376406B2, “uPAR-uPA interaction inhibitors and methods for treating cancer” (Indiana University Research and Technology Corporation, priority 2011, dated 2016).
Entries after “also recorded” stand apart in the source; their conditions may differ.

Columns and labels:
uPAR = molecular target: T1, uPAR (Homo sapiens, UniProt Q03405); experiment: Fluorescence polarization assay, displacement of GFD-FAM; assay type: binding; conditions: displacement of GFD-FAM from uPAR
T1 construct: uPAR comprising amino acids 1-277 was expressed in Drosophila S2 cells; made in house; host or cells: Drosophila S2 cells
T1 sequence (Q03405 23-299): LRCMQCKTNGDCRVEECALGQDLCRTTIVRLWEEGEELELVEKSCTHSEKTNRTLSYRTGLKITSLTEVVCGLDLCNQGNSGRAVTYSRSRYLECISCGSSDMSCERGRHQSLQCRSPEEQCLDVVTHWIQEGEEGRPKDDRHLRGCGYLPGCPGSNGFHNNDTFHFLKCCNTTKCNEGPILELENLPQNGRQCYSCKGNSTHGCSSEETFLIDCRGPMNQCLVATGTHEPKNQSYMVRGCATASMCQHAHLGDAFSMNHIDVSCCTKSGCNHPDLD
Protocol: Fluorescence Polarization Assay. […] Polarized fluorescence intensities were measured immediately following addition of inhibitors to the protein-peptide mix at room temperature on an EnVision® Multilabel Plate Readers (PerkinElmer) with excitation and emission wavelengths of 485 and 530 nm, respectively.
Fluorescence Polarization Screening to Identify Hit Compounds. To identify compounds that bind to uPAR at the GFD binding site, a fluorescent polarization assay is conceived with a probe that consists of labeling GFD with fluorescein at its N-terminus (GFD-FAM). […] Using this assay, all compounds that emerge from the computational screening are tested initially at a single concentration of 50 μM. The compounds showing the highest reduction in polarization are subjected to activity confirmation.

uPAATF binding to uPAR = molecular target: T2, uPAATF binding to uPAR (Homo sapiens, UniProt Q03405); experiment: Microtiter-based uPAATF ELISA; conditions: inhibition of uPAATF binding to uPAR
T2 construct: uPAR comprising amino acids 1-277 was expressed in Drosophila S2 cells; made in house; host or cells: Drosophila S2 cells (uPAR)
T2 sequence (Q03405 23-299): as above
Protocol: Microtiter-Based ELISA. The competition-binding assays were performed by incubating the proteins with inhibitors prior to binding to the immobilized proteins. Medium to high-binding microplates were coated and incubated for 1 hour at 4° C. with 100 μL of 2 μg/mL of uPAATF in 1×PBS for immobilization. A 1:1 mixture of Superblock® buffer in PBS (Thermoscientific) with 0.04 M NaH2PO4 and 0.3 M NaCl buffer were used for blocking Following the incubation and washing steps, uPA1310 biotinylated antibody (R&D Systems, MN) in 1% BSA 1×PBS buffer (100 μL/well) was added to the wells and incubated for 1-2 hours to allow for the detection of bound uPAR. In the presence of streptavidin-peroxidase and hydrogen peroxide signal was detected on an EnVision® Multilabel Plate Readers (PerkinElmer).

H1299 cells = experiment: Immunofluorescence imaging of surface uPA and uPAR; assay type: cell-based, human; conditions: H1299, 100 μM, 30 min, vs DMSO control
Protocol: (§1) Immunofluorescence Imaging. An immunofluorescence approach was employed to establish the specificity of the compounds. This consisted of using a fluorescently labeled secondary antibody to probe for the presence of an anti-uPA antibody bound to uPA at the cell surface of MDA-MB-231 and H1299 cancer cells. […] Non-specific bindings were blocked with 5% normal goat serum, 5% BSA, 0.01% Triton X-100 in PBS at RT for 1 h, the cells were then incubated overnight at 4° C. with rabbit polyclonal anti-human uPA or mouse monoclonal anti-human uPAR antibodies (both at a dilution of 1:100 in 1% BSA/PBS). After another washing step with PBS three times, the cells were incubated with anti-rabbit IgG conjugated with Alexa 594 Texas Red (Invitrogen Corporation, Carlsbad, Calif.) or goat anti-mouse IgG conjugated with Alexa Fluor 488 (Invitrogen Corporation, Carlsbad, Calif.), both at a dilution of 1:1000 in 1% BSA/PBS at RT for 1 h in the dark. Images were acquired using a Nikon swept-filed confocal microscope.
(§2) Endogenous uPAR and uPA in the non-small cell lung cancer (NSCLC) cell line H1299 and in a breast cancer cell line MDA-MB-231 were immunostained with selective antibodies and visualized by staining with fluorescently-conjugated secondary antibodies. Cells are stained with (a) a monoclonal antibody against uPAR or (b) a polyclonal antibody against uPA.
(§3) In cells with clear surface staining, the surface of each cell was outlined using uPAR staining and then the pixel immunodensity for uPAR and uPA were determined using Nikon elements software in the outlined regions. Only cells where the cell membrane was clearly discernible were included in the analysis. Each value represents the mean±S.E. from 26-30 cells taken from three different fields from two independent samples. *significant difference from the DMSO control (p<0.001, Student's t test). In the absence of any compound (0.1% DMSO; vehicle control) both uPAR and uPA were detected in large intracellular clusters as well as on surface membranes of MDA-MB-231 cells.

MDA-MB-231 cells = experiment: Immunofluorescence imaging of surface uPA and uPAR; assay type: cell-based, human; conditions: MDA-MB-231, 100 μM, 30 min, vs DMSO control
Protocol: as §1, §2, §3

`CC1CC(C)CN(c2cc(Nc3ccccc3C(=O)O)c3c4c(onc24)-c2ccccc2C3=O)C1` (stereo not drawn) [IPR-456] was tested, and the Ki (uPAR) was 4 µM, the IC50 (uPAATF binding to uPAR) was roughly 10 µM and the “immunostaining pattern of uPAR” value (H1299 cells) was “no change in the immunostaining pattern of uPAR”. The “uPA staining at the cell surface” value (H1299 cells) was “significant reduction of uPA staining at the cell surface; also recorded: impairs binding of uPA to uPAR at the cell membrane”, the “immunostaining pattern of uPAR” value (MDA-MB-231 cells) was “no change in the immunostaining pattern of uPAR” and the “uPA staining at the cell surface” value (MDA-MB-231 cells) was “significant reduction of uPA staining at the cell surface; also recorded: impairs binding of uPA to uPAR at the cell membrane”.
